In the supplement of paper PMC10307832:

Experiments:
Assay in all cases: relative viability (nuclei count vs DMSO), 5 days (fraction); higher = more cells survive
[1] = compound: CC(C)N(CCCNC(=O)Nc1ccc(C(C)(C)C)cc1)C[C@H]1O[C@@H](n2ccc3c(N)ncnc32)[C@H](O)[C@@H]1O + CCNC(=O)c1noc(-c2cc(C(C)C)c(O)cc2O)c1-c1ccc(CN2CCOCC2)cc1 [Luminespib] (partner 0.01 µM)
Method in brief: (§1)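 Lung cancer cell lines in 1536-well plates got either a single drug or a fixed anchor-drug dose together with five library-drug doses (not always all listed) in √10 steps, by pin tool, on the day after seeding. Nuclei were counted after 5 days, and relative viability is the treated-to-vehicle ratio of nuclei counts. Values are medians of duplicate plates.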

[2] = compound: CC(C)N(CCCNC(=O)Nc1ccc(C(C)(C)C)cc1)C[C@H]1O[C@@H](n2ccc3c(N)ncnc32)[C@H](O)[C@@H]1O + Cc1nc(Nc2ncc(C(=O)Nc3c(C)cccc3Cl)s2)cc(N2CCN(CCO)CC2)n1 [Dasatinib] (partner 0.075 µM)
Method in brief: as §1

Shikonin + Lapatinib = compound: CC(C)=CC[C@@H](O)C1=CC(=O)c2c(O)ccc(O)c2C1=O [Shikonin] + CS(=O)(=O)CCNCc1ccc(-c2ccc3ncnc(Nc4ccc(OCc5cccc(F)c5)c(Cl)c4)c3c2)o1 [Lapatinib] (partner 2 µM)
Method in brief: as §1

Shikonin + Navitoclax = compound: CC(C)=CC[C@@H](O)C1=CC(=O)c2c(O)ccc(O)c2C1=O [Shikonin] + CC1(C)CCC(c2ccc(Cl)cc2)=C(CN2CCN(c3ccc(C(=O)NS(=O)(=O)c4ccc(N[C@H](CCN5CCOCC5)CSc5ccccc5)c(S(=O)(=O)C(F)(F)F)c4)cc3)CC2)C1 [Navitoclax] (partner 0.5 µM)
Method in brief: as §1

Cell Line	relative viability ([1]; first compound 0.08 µM)	relative viability ([1]; first compound 0.253 µM)	relative viability ([1]; first compound 0.8 µM)	relative viability ([1]; first compound 2.53 µM)	relative viability ([1]; first compound 8 µM)	relative viability ([2]; first compound 0.08 µM)	relative viability ([2]; first compound 0.253 µM)	relative viability ([2]; first compound 0.8 µM)	relative viability ([2]; first compound 2.53 µM)	relative viability ([2]; first compound 8 µM)	relative viability (Shikonin + Lapatinib; first compound 0.01 µM)	relative viability (Shikonin + Lapatinib; first compound 0.1 µM)	relative viability (Shikonin + Lapatinib; first compound 0.3162 µM)	relative viability (Shikonin + Lapatinib; first compound 1 µM)	relative viability (Shikonin + Navitoclax; first compound 0.01 µM)	relative viability (Shikonin + Navitoclax; first compound 0.1 µM)	relative viability (Shikonin + Navitoclax; first compound 0.3162 µM)	relative viability (Shikonin + Navitoclax; first compound 1 µM)
COR-L23	0.683	0.757	0.755	0.739	0.545	0.499	0.5	0.457	0.474	0.442	1.03	1.07	1.13	1.05	1.13	1.26	1.05	0.908
NCI-H2126	0.847	0.814	0.941	0.88	0.925	0.616	0.582	0.603	0.601	0.554	0.779	0.795	0.81	0.824	0.84	0.86	0.879	0.864
LC-2-ad	0.935	0.973	1.07	0.893	1.03	0.528	0.569	0.527	0.502	0.632	0.798	1.38	1.04	0.965	0.493	0.413	0.552	0.465
NCI-H1915	0.757	0.819	0.676	0.789	0.77	0.311	0.34	0.311	0.323	0.314	1.01	1.18	1	1.09	0.719	0.793	0.795	0.847
NCI-H1793	0.18		0.292	0.171	0.203	0.368		0.355	0.36	0.38	0.637	0.786	0.742	0.648	0.43	0.379	0.407	0.76
NCI-H2085	0.434	0.506	0.441	0.414	0.389	0.248	0.218	0.288	0.232	0.26	0.767	0.727	0.718	0.774	1.08	1.09	1.13	0.664
COR-L 105	0.705	0.811	0.601	0.827	0.736	0.298	0.347	0.308	0.31	0.391	0.339	0.346	0.318	0.36	0.9	0.786	0.747	0.768
SW 1573	0.348		0.356	0.172	0.194	0.475	0.463	0.579	0.704	0.474	1.07	1.18	1.14	1.19	1.2	1.13	1.01	0.869
LXF-289	0.731	0.679	0.65	0.669	0.71	0.281	0.271	0.231	0.186	0.229	0.959	1	0.906	0.945	1.01	0.873	0.96	0.967
